ChEMBL document CHEMBL5727610, “Cardiac glycoside analogs and their use in methods for inhibition of viral infection” (2020)

Assay: The inhibition of HCMV replication by digitoxin: The effect of digitoxin analogs on HCMV replication was tested. HFFs were infected with pp28-luciferase HCMV and treated with the compounds (Table 2, FIG. 2A). EC50, CC50 and selectivity index (SI) calculated as CC50/EC50 were determined for each compound. […] The compounds with the best SI were α-L rhamnose, α-L amicetose and mannose. Virus yield was determined for selected compounds (FIG. 2B), and a dose dependent effect on virus DNA yield was observed.

CC1OC(OC2C(C)OC(OC3C(O)CC(O[C@H]4CC[C@@]5(C)[C@H](CC[C@@H]6[C@@H]5CC[C@]5(C)[C@@H](C7=CC(=O)OC7)CC[C@]65O)C4)OC3C)C(C)C2O)CC(OC2OC(C)[C@H](OC3OC(C)[C@@H](OC4OC(C)[C@@H](O)C(O)[C@@H]4O)C(O)[C@@H]3O)C(O)[C@@H]2O)C1C (some centres not stated) and CC1OC(OC2C(C)OC(OC3C(O)CC(O[C@H]4CC[C@@]5(C)[C@H](CC[C@@H]6[C@@H]5CC[C@]5(C)[C@@H](C7=CC(=O)OC7)CC[C@]65O)C4)OC3C)C(C)C2O)CC(OC2OC(C)[C@@H](OC3OC(C)[C@H](OC4OC(C)[C@H](O)C(O)[C@H]4O)C(O)[C@H]3O)C(O)[C@H]2O)C1C (some centres not stated) are within 1.5-fold of each other in EC50: 233 nM for the first, 322 nM for the second.

First: CC1OC(OC2C(O)CC(OC3C(O)CC(O[C@H]4CC[C@@]5(C)[C@H](CC[C@@H]6[C@@H]5CC[C@]5(C)[C@@H](C7=CC(=O)OC7)CC[C@]65O)C4)OC3C)OC2C)CC(OC2OC(C)[C@@H](OC3OC(C)[C@H](O)C(O)[C@H]3O)C(O)[C@H]2O)C1C (some centres not stated)
Second: CC1OC(OC2C(O)CC(OC3C(O)CC(O[C@H]4CC[C@@]5(C)[C@H](CC[C@@H]6[C@@H]5CC[C@]5(C)[C@@H](C7=CC(=O)OC7)CC[C@]65O)C4)OC3C)OC2C)CC(OC2OC(C)[C@H](OC3OC(C)[C@@H](O)C(O)[C@@H]3O)C(O)[C@@H]2O)C1C (some centres not stated)
The EC50 of the first is 5.7-fold higher: 210 nM for the first, 36.7 nM for the second.

First: CC1OC(OC2C(O)CC(OC3C(O)CC(O[C@H]4CC[C@@]5(C)[C@H](CC[C@@H]6[C@@H]5CC[C@]5(C)[C@@H](C7=CC(=O)OC7)CC[C@]65O)C4)OC3C)OC2C)CC(OC2OC(C)[C@H](OC3OC(C)[C@@H](O)C[C@@H]3O)C[C@@H]2O)C1C (some centres not stated)
Second: CC1OC(OC2C(O)CC(OC3C(O)CC(O[C@H]4CC[C@@]5(C)[C@H](CC[C@@H]6[C@@H]5CC[C@]5(C)[C@@H](C7=CC(=O)OC7)CC[C@]65O)C4)OC3C)OC2C)CC(OC2OC(C)[C@@H](OC3OC(C)[C@H](O)C[C@H]3O)C[C@H]2O)C1C (some centres not stated)
The EC50 of the first is 53-fold lower: 14.8 nM for the first, 786 nM for the second. The first is the more potent here.

First: CC1OC(OC2C(O)CC(OC3C(O)CC(O[C@H]4CC[C@@]5(C)[C@H](CC[C@@H]6[C@@H]5CC[C@]5(C)[C@@H](C7=CC(=O)OC7)CC[C@]65O)C4)OC3C)OC2C)CC(OC2OC(C)[C@H](O)C(O)[C@@H]2O)C1C (some centres not stated)
Second: CC1OC(OC2C(O)CC(OC3C(O)CC(O[C@H]4CC[C@@]5(C)[C@H](CC[C@@H]6[C@@H]5CC[C@]5(C)[C@@H](C7=CC(=O)OC7)CC[C@]65O)C4)OC3C)OC2C)CC(OC2OC(C)[C@@H](O)C(O)[C@H]2O)C1C (some centres not stated)
The EC50 of the first is 5.6-fold lower: 4.77 nM for the first, 26.6 nM for the second. The first is the more potent here.

First: CC1OC(OC2C(O)CC(OC3C(O)CC(O[C@H]4CC[C@@]5(C)[C@H](CC[C@@H]6[C@@H]5CC[C@]5(C)[C@@H](C7=CC(=O)OC7)CC[C@]65O)C4)OC3C)OC2C)CC(OC2OC(CO)[C@H](O)C(O)[C@@H]2O)C1C (some centres not stated)
Second: CC1OC(OC2C(O)CC(OC3C(O)CC(O[C@H]4CC[C@@]5(C)[C@H](CC[C@@H]6[C@@H]5CC[C@]5(C)[C@@H](C7=CC(=O)OC7)CC[C@]65O)C4)OC3C)OC2C)CC(OC2OC(C)[C@@H](O)C[C@H]2O)C1C (some centres not stated)
The EC50 of the first is 5.1-fold lower: 7.31 nM for the first, 37.5 nM for the second.

Going from CC1OC(OC2C(C)OC(OC3C(O)CC(O[C@H]4CC[C@@]5(C)[C@H](CC[C@@H]6[C@@H]5CC[C@]5(C)[C@@H](C7=CC(=O)OC7)CC[C@]65O)C4)OC3C)C(C)C2O)CC(OC2OC(C)[C@H](OC3OC(C)[C@@H](OC4OC(C)[C@@H](O)C[C@@H]4O)C[C@@H]3O)C[C@@H]2O)C1C (some centres not stated) to CC1OC(OC2C(C)OC(OC3C(O)CC(O[C@H]4CC[C@@]5(C)[C@H](CC[C@@H]6[C@@H]5CC[C@]5(C)[C@@H](C7=CC(=O)OC7)CC[C@]65O)C4)OC3C)C(C)C2O)CC(OC2OC(C)[C@@H](OC3OC(C)[C@H](OC4OC(C)[C@H](O)C[C@H]4O)C[C@H]3O)C[C@H]2O)C1C (some centres not stated), the EC50 rises from 113 nM to 2080 nM (18-fold). The first is the more potent here.
